The conditions of data set [1]: studies have shown; cited from earlier work.
In data set [2] the test system is THG15 cells. Briefly: Cell viability assay (CCK-8). The class given is cell-based. The following applies: Homo sapiens, 72 hours, estimated IC50, read-out: IC50 (half maximal inhibitory concentration), cell viability.
Protocol: Patient-derived tumor cell were obtained with the approval of the Ethics Committee of the Beijing Tsinghua Changgung Hospital in compliance with informed consent of the patient and their family. […] Briefly, the tissues were mechanically minced and then digested with 0.1% trypsin (Hyclone) and 10 U/ml DNasel (Roche) at 37° C. for 45 min. The tissues were passed through a 100-μm cell strainer after lysis of red blood cells and several washes. Cells that that passed through the filter were collected and added with EF medium composed of Neurobasal medium, 3 mM L-glutamine, 1×B27 supplement, 0.5×N2 supplement, 2 μg/mL heparin, 20 ng/mL recombinant human EGF (Sigma-Aldrich), 20 ng/mL recombinant human FGF2 (Sigma-Aldrich), and 0.5×antibiotic antimycotic complex. Fresh EF medium was replenished every 3 days during cell culture. Tumor cell spheres were dissociated using NeuroCult Chemical Dissociation kit (StemCell), and cells were passaged.
Panobinostat (LBH589) and Tazemetostat (EPZ-6438) were purchased from Selleck Chemicals and dissolved in 0.1% DMSO before use. About 5,000 THG15 cells were seeded into each well of a 96-well plate and cultured in EF medium for 24 hours prior to drug intervention. […] According to the instructions, cell viability was determined by using a CCK-8 kit (GK10001), and the optical density was measured at 450 nm using a SPARK reader (TECAN). […]

The values below come from patent US20260183300A1, “PHARMACEUTICAL COMPOSITION AND USE THEREOF” (priority 2022, published 2026).

`Cc1[nH]c2ccccc2c1CCNCc1ccc(/C=C/C(=O)NO)cc1` [panobinostat, Panobinostat]: the “penetration of the blood-brain barrier” value in data set [1] was “can penetrate the blood-brain barrier”. Moreover, the IC50 in data set [2] was roughly 1 µM.

As to `CCN(c1cc(-c2ccc(CN3CCOCC3)cc2)cc(C(=O)NCc2c(C)cc(C)[nH]c2=O)c1C)C1CCOCC1` [tazemetostat, Tazemetostat], the IC50 in data set [2] was roughly 50 µM.
